The structures appear in SMILES notation.

One may read the IC50 as the concentration that gives 50% inhibition. A high value points to lower potency.

In the test the target is Acetylcholinesterase (Homo sapiens, UniProt P22303). In words: Inhibition of AChE by spectrophotometry.
Sequence of Acetylcholinesterase (P22303 whole entry): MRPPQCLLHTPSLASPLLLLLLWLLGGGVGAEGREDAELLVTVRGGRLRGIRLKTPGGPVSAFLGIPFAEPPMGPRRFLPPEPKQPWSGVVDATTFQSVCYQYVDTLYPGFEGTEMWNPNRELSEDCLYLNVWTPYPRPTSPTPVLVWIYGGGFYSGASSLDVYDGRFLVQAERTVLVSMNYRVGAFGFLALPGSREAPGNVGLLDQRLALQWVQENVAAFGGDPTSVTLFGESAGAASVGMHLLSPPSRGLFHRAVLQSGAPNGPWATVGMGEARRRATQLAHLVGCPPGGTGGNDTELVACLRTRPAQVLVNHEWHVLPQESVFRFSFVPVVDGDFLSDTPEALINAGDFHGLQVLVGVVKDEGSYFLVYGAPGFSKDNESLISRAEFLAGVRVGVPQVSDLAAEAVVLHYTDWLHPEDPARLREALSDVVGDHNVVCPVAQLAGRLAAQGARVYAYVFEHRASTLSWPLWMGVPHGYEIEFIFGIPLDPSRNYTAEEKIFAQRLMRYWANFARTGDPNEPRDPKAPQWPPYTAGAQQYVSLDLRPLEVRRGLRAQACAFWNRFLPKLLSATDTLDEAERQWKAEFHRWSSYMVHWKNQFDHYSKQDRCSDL

For the compound `C=C(C)[C@H](O)Cc1cc2ccc(=O)oc2cc1O`, the IC50 was determined as 130 µM.

Take `COc1cc(OCC=C(C)C)c2ccc(=O)oc2c1`: the 50% inhibitory concentration (IC50) was 240 µM.

Compound `CC(C)=CC(=O)O[C@H]1Cc2cc3ccc(=O)oc3cc2OC1(C)C` [DECURSIN] registered a half-maximal inhibitory concentration (IC50) of 390 µM.

`CC(C)=CCc1cc2ccc(=O)oc2cc1O` [DEMETHYLSUBEROSIN] registered a half-maximal inhibitory concentration (IC50) of 2400 µM.

`CC(C)=CCOc1c2ccoc2cc2oc(=O)ccc12` [ISOIMPERATORIN] came in with an IC50 of 69 µM.

`CC(C)(O)[C@@H]1Cc2cc3ccc(=O)oc3cc2O1` [MARMESIN] came in with a 50% inhibitory concentration (IC50) of 67 µM. The IC50 values of the last two compounds are within 1.5-fold of each other.

In turn, `COc1c2occc2cc2ccc(=O)oc12` [METHOXSALEN] came in with an IC50 of 54 µM. The IC50 values of the last two compounds are within 1.5-fold of each other.

`CC(C)(O[C@@H]1O[C@H](CO)[C@@H](O)[C@H](O)[C@H]1O)[C@H]1Cc2cc3ccc(=O)oc3cc2O1` [NODAKENIN]: the IC50 worked out at 68 µM.

As to `CC(C)(O)C(=O)Cc1cc2ccc(=O)oc2cc1O` [PEUCEDANONE], the IC50 turned out to be 180 µM. Against the preceding compound, the IC50 is about 2.6-fold higher.

In the case of `CC1(C)C=Cc2cc3ccc(=O)oc3cc2O1` [XANTHYLETIN], the IC50 was 150 µM.

The record behind these values is ChEMBL document CHEMBL1150852, “Coumarins isolated from Angelica gigas inhibit acetylcholinesterase: structure-activity relationships” (J Nat Prod, 2001).
